Data: ChEMBL document CHEMBL4842385, “Indirubin Derivatives as Dual Inhibitors Targeting Cyclin-Dependent Kinase and Histone Deacetylase for Treating Cancer” (J Med Chem, 2021)
Calls of active or inactive are those of the source. The calls are words filed in the database; no cut-off is given here.

How the values were obtained:
K562 [1] = test: Induction of apoptosis in human K562 cells measured after 48 hrs by Annexin-V/FITC-propidium iodide staining based flow cytometry analysis; format: functional, cell-based; settings: dose 2.5-10 µM
MCF7 = test: Induction of apoptosis in human MCF7 cells assessed as increase in sum of early and late apoptotic cells at 2.5 to 10 uM measured after 48 hrs by Annexin-V/FITC-propidium iodide staining based flow cytometry analysis; format: functional, cell-based; settings: dose 2.5-10 µM
K562 [2] = test: Induction of apoptosis in human K562 cells assessed as increase in sum of early and late apoptotic cells at 2.5 to 10 uM measured after 48 hrs by Annexin-V/FITC-propidium iodide staining based flow cytometry analysis; format: functional, cell-based; settings: dose 2.5-10 µM
A549 [3] = test: Induction of apoptosis in human A549 cells assessed as increase in sum of early and late apoptotic cells at 2.5 to 10 uM measured after 48 hrs by Annexin-V/FITC-propidium iodide staining based flow cytometry analysis; format: functional, cell-based; settings: dose 2.5-10 µM
K562 [4] = test: Cycle arrest in human K562 cells assessed as increase in cell population at S phase measured after 24 hrs by propidium iodide/RNase staining based flow cytometry; format: functional; settings: dose 2.5-10 µM
A549 [5] = test: Cycle arrest in human A549 cells assessed as increase in cell population at S phase measured after 24 hrs by propidium iodide/RNase staining based flow cytometry; format: functional; settings: dose 2.5-10 µM
[6] = molecular target: T1, Protein deacetylase HDAC6 (Homo sapiens) (UniProt Q9UBN7); test: Inhibition of HDAC6 in human MCF7 cells assessed as increase in alpha tubulin acetylation measured after 48 hrs by Western blot analysis; format: cell-based; settings: dose 1-10 µM
T1 sequence (whole entry): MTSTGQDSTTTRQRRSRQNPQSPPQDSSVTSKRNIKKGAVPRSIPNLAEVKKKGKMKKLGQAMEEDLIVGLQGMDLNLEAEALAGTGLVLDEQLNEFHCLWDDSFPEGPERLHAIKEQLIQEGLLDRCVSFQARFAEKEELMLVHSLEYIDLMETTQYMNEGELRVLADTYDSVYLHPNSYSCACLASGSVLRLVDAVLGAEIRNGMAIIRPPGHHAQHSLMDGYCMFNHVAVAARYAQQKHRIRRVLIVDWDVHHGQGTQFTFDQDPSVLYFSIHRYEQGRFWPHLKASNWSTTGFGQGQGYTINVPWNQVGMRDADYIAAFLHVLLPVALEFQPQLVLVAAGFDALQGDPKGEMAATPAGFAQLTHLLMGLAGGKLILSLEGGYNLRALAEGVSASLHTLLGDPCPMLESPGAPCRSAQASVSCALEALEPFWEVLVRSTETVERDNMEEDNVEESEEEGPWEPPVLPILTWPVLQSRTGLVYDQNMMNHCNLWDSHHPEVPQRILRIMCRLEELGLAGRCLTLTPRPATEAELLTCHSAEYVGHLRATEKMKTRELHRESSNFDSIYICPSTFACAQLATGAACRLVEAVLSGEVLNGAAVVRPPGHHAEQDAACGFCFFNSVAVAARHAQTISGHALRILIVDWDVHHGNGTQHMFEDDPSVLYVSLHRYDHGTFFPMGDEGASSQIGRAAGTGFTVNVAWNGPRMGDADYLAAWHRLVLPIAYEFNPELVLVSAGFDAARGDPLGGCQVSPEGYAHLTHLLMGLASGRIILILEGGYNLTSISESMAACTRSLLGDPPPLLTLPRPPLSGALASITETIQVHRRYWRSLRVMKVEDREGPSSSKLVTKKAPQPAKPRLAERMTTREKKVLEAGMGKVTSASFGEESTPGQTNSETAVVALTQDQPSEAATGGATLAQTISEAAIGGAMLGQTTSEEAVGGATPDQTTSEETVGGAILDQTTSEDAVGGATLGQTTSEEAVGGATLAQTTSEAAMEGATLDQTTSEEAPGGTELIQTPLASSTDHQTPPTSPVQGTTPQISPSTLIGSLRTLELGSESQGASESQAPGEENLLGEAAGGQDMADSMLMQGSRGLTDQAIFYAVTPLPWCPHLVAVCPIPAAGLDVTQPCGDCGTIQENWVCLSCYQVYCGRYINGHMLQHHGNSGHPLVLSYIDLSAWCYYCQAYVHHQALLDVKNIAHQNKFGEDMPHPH

[7] = molecular target: T1, Protein deacetylase HDAC6 (Homo sapiens); test: Inhibition of HDAC6 in human K562 cells assessed as increase in alpha tubulin acetylation measured after 48 hrs by Western blot analysis; format: cell-based; settings: dose 1-10 µM
[8] = molecular target: T1, Protein deacetylase HDAC6 (Homo sapiens); test: Inhibition of HDAC6 in human K562 cells assessed as accumulation of acetylation of […] at 1 to 10 uM measured after 48 hrs by Western blot analysis; format: cell-based; settings: dose 1-10 µM
[9] = molecular target: T2, Cyclin-dependent kinase 2/4/6 (Homo sapiens) (UniProt P11802+P24941+Q00534); test: Inhibition of CDK2/4/6 in human A549 cells assessed as decrease in Rb phosphorylation measured after 48 hrs by Western blot analysis; format: cell-based; settings: dose 1-10 µM
[10] = molecular target: T2, Cyclin-dependent kinase 2/4/6 (Homo sapiens); test: Inhibition of CDK2/4/6 in human A549 cells assessed as decrease in Rb phosphorylation at 10 uM incubated for 24 hrs followed by compound washout by DAPI staining based immunofluorescence assay; format: cell-based
[11] = molecular target: T1, Protein deacetylase HDAC6 (Homo sapiens); test: Inhibition of HDAC6 in human A549 cells assessed as increase in alpha tubulin acetylation at 10 uM incubated for 24 hrs followed by compound washout by DAPI staining based immunofluorescence assay; format: cell-based
A549 [12] = test: Induction of apoptosis in human A549 cells assessed as downregulation of Mcl-1 protein measured after 48 hrs by Western blot analysis; format: functional, cell-based; settings: dose 1-10 µM
[13] = Toxicity in iv dosed BALB/c nude mouse assessed as maximum tolerated dose administered once daily for 5 consecutive days; format: organism-based; settings: in vivo, time 5 day
A549 [14] = test: Antitumor activity against human A549 cells xenografted in BALB/c nude mouse assessed as reduction in tumor weight at 0.75 to 1.5 mg, IT (intratumoral) administered for 21 consecutive days; format: functional, cell-based; settings: dose 0.75-1.5 mg, time 21.0 day
A549 [15] = test: Antitumor activity against human A549 cells xenografted in BALB/c nude mouse assessed as reduction in tumor size at 25 to 50 mg/kg, iv administered for 21 consecutive days; format: functional, organism-based; settings: dose 25-50 mg/kg, time 21.0 day
[16] = Toxicity in BALB/c nude mouse xenografted with human A549 cells assessed as adverse effect at 25 to 50 mg/kg, iv administered for 21 consecutive days; format: organism-based; settings: in vivo, 504 h, dose 25-50 mg/kg, time 21 day
Mus musculus = test: In vivo inhibition of CDK2/4/6 in BALB/c nude mouse xenografted with human A549 cells assessed as reduction in Rb phosphorylation at 25 to 50 mg/kg, iv administered for 21 consecutive days by immunohistochemical analysis; format: functional, organism-based; settings: dose 25-50 mg/kg
HeLa = test: Potency index, ratio of SAHA IC50 to test compound IC50 for antiproliferative activity against human HeLa cells assessed as cell growth inhibition measured after 48 hrs by CCK8 assay; format: functional
A549 [17] = test: Potency index, ratio of SAHA IC50 to test compound IC50 for antiproliferative activity against human A549 cells assessed as cell growth inhibition measured after 48 hrs by CCK8 assay; format: functional

O=C(CCCO/N=C1/C(=C2/C(=O)Nc3ccccc32)Nc2ccccc21)NO
Activity (K562 [1]): Dose-Dependent Effect | Activity (MCF7): Active | Activity (K562 [2]): Active | Activity (A549 [3]): Active | Activity (K562 [4]): Dose-Dependent Effect | Activity (A549 [5]): Dose-Dependent Effect | inhibition [6]: Dose-Dependent Effect | inhibition [7]: Dose-Dependent Effect | inhibition [8]: inactive | inhibition [9]: Dose-Dependent Effect | inhibition [10]: Active | inhibition [11]: Active | Activity (A549 [12]): Dose-Dependent Effect | MTD at 120 h [13]: ≤ 200 mg/kg | Activity (A549 [14]): Active | Activity (A549 [15]): Active | Activity [16]: Non-Toxic | inhibition (Mus musculus): Active | Ratio IC50 (HeLa): 3 | Ratio IC50 (A549 [17]): 3
